Several values for one entry are separate records, joined by “and”; a condition that tells them apart may be missing. Equal values may be shown once.
Key:
[1] = test system: fat cells (isolated adipose cells); assay: In Vitro Fat Cell Bioassay (insulin-like activity, conversion of glucose-1-14C to 14CO2); type: cell-based; conditions: for 14-CO2: average CPM, baseline not subtracted, repeat lines are separate runs
Experimental: It is known that fat cells incubated in Krebs-Ringer bicarbonate buffer containing glucose and albumin convert glucose-1-^14 C to ^14 CO2. […] This is the basis of the bioassay of insulin-like activity described in J. Gliemann, Diabetes, 14, 643(1965). The method for preparing the necessary isolated adipose cells retaining their metabolic activity is described in M. Rodbell, J. Biol. Chem., 239, 375(1964).
The compounds of the present invention have been bioassayed for their insulin-like activity essentially by the process set forth in Gliemann and Rodbell.
*All compounds were tested at 100 μg./ml.
**Insulin standard at 25 μu/ml.
1. An average CPM value is taken of each group.
2. The average value of Baseline (Buffer control) is subtracted from the
average of each of the remaining groups.
3. In order to obtain Relative Activity percentage, the average CPM value
for each compound (minus the average CPM value of the control group) is
divided by the average CPM value in the insulin standard (minus the
average CPM value of the controls), and the resultant value multiplied by
100 to obtain % activity.

[2] = test system: fat cells (isolated adipose cells); conditions: fat cells in Krebs-Ringer bicarbonate buffer containing glucose and albumin; known from Gliemann; cited from earlier work
[3] = compounds tested at 100 μg./ml, baseline subtracted, relative to insulin standard 25 μu/ml = 100%

Question: Which 14-CO2 ([1]; compounds tested at 100 μg./ml) does the source give for NCCCCCCO[C@H]1O[C@H](CO)[C@@H](O)[C@H](O)[C@@H]1O [1-(6-aminohexyl) α-D-mannopyranoside, 1-(6-aminohexyl)-α-D-mannopyranoside] here?
Answer: 3330 cpm

Question: And the activity at 100 µg/mL [1, 3]?
Answer: 28%

Question: For Insulin: Insulin standard at 25 μu/ml, which “stimulation of 14CO2 production” value [2] is on record?
Answer: stimulation of severalfold

Question: And the “Relative Activity %” value ([1]; Insulin standard at 25 μu/ml, reference set to 100%)?
Answer: 100%

Question: Which results are given for NCCCCCCS[C@@H]1O[C@H](CO)[C@@H](O)[C@H](O)[C@@H]1O [1-[(6-aminohexyl)thio]-1-deoxy-β-D-mannopyranoside]?
Answer: 14-CO2 ([1]; compounds tested at 100 μg./ml): 4898 cpm and 5177 cpm; Relative Activity % [1, 3]: 78%; activity at 100 µg/mL [1, 3]: 93%

Question: With NCCCCCCC(=O)N[C@@H]1O[C@H](CO)[C@@H](O)[C@H](O)[C@@H]1O [1-[(7-aminoheptanoyl)amino]-1-deoxy-β-D-mannopyranoside] as the compound, how does the 14-CO2 ([1]; compounds tested at 100 μg./ml) read?
Answer: 1952 cpm

Question: And the activity at 100 µg/mL [1, 3]?
Answer: 26%
